Test results: the supplement of paper PMC10307832

Key:
Test in all cases: relative viability (nuclei count vs DMSO), 5 days (fraction); higher = more cells survive
NCI-H596 = system: NCI-H596
Procedure, shortened: (§1)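 Lung cancer cell lines, seeded in 1536-well plates, were treated the following day by pin tool with a single drug or with five library-drug doses (not always all listed) in √10 steps on top of a fixed anchor-drug dose. Cells were fixed and nuclei stained in one step after 5 days, and nuclei were counted. Relative viability is the nuclei count for treated wells divided by that for vehicle wells, reported as medians of duplicate plates.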

EKVX = system: EKVX
Procedure, shortened: as §1

NCI-H2009 = system: NCI-H2009
Procedure, shortened: as §1

LC-2-ad = system: LC-2-ad
Procedure, shortened: as §1

NCI-H1395 = system: NCI-H1395
Procedure, shortened: as §1

NCI-H1355 = system: NCI-H1355
Procedure, shortened: as §1

NCI-H647 = system: NCI-H647
Procedure, shortened: as §1

NCI-H2405 = system: NCI-H2405
Procedure, shortened: as §1

SK-MES-1 = system: SK-MES-1
Procedure, shortened: as §1

NCI-H1792 = system: NCI-H1792
Procedure, shortened: as §1

HARA = system: HARA
Procedure, shortened: as §1

SK-LU-1 = system: SK-LU-1
Procedure, shortened: as §1

HCC-366 = system: HCC-366
Procedure, shortened: as §1

NCI-H2228 = system: NCI-H2228
Procedure, shortened: as §1

NCI-H2087 = system: NCI-H2087
Procedure, shortened: as §1

HCC-827 = system: HCC-827
Procedure, shortened: as §1

LOU-NH91 = system: LOU-NH91
Procedure, shortened: as §1

BEN = system: BEN
Procedure, shortened: as §1

NCI-H1437 = system: NCI-H1437
Procedure, shortened: as §1

NCI-H661 = system: NCI-H661
Procedure, shortened: as §1

NCI-H1734 = system: NCI-H1734
Procedure, shortened: as §1

C=C1C(=O)O[C@@H](CCCCCCCC)[C@@H]1C(=O)O [C-75] + C[C@]1(O)C[C@@H](c2nc(-c3ccc4ccc(-c5ccccc5)nc4c3)c3c(N)nccn32)C1 [Linsitinib] (partner 1 µM)
relative viability (NCI-H596; first compound 0.08 µM): 1.01
relative viability (NCI-H596; first compound 0.253 µM): 1.09
relative viability (NCI-H596; first compound 0.8 µM): 1.01
relative viability (NCI-H596; first compound 2.53 µM): 0.911
relative viability (NCI-H596; first compound 8 µM): 1.03
relative viability (EKVX; first compound 0.08 µM): 1.01
relative viability (EKVX; first compound 0.253 µM): 1.05
relative viability (EKVX; first compound 0.8 µM): 0.906
relative viability (EKVX; first compound 2.53 µM): 0.96
relative viability (EKVX; first compound 8 µM): 0.908
relative viability (NCI-H2009; first compound 0.08 µM): 1.19
relative viability (NCI-H2009; first compound 0.253 µM): 1.09
relative viability (NCI-H2009; first compound 0.8 µM): 1.11
relative viability (NCI-H2009; first compound 2.53 µM): 1.02
relative viability (NCI-H2009; first compound 8 µM): 0.997
relative viability (LC-2-ad; first compound 0.08 µM): 0.869
relative viability (LC-2-ad; first compound 0.253 µM): 0.865
relative viability (LC-2-ad; first compound 0.8 µM): 0.798
relative viability (LC-2-ad; first compound 8 µM): 0.855
relative viability (NCI-H1395; first compound 0.08 µM): 1.11
relative viability (NCI-H1395; first compound 0.253 µM): 1.05
relative viability (NCI-H1395; first compound 0.8 µM): 1.12
relative viability (NCI-H1395; first compound 2.53 µM): 1.11
relative viability (NCI-H1395; first compound 8 µM): 1.25
relative viability (NCI-H1355; first compound 0.08 µM): 0.849
relative viability (NCI-H1355; first compound 0.253 µM): 0.803
relative viability (NCI-H1355; first compound 0.8 µM): 0.806
relative viability (NCI-H1355; first compound 2.53 µM): 0.805
relative viability (NCI-H1355; first compound 8 µM): 0.825
relative viability (NCI-H647; first compound 0.08 µM): 1.18
relative viability (NCI-H647; first compound 0.253 µM): 1.31
relative viability (NCI-H647; first compound 2.53 µM): 0.903
relative viability (NCI-H647; first compound 8 µM): 0.823
relative viability (NCI-H2405; first compound 0.08 µM): 0.882
relative viability (NCI-H2405; first compound 0.253 µM): 0.728
relative viability (NCI-H2405; first compound 0.8 µM): 0.872
relative viability (NCI-H2405; first compound 2.53 µM): 0.967
relative viability (NCI-H2405; first compound 8 µM): 0.989
relative viability (SK-MES-1; first compound 0.08 µM): 1.1
relative viability (SK-MES-1; first compound 0.253 µM): 0.935
relative viability (SK-MES-1; first compound 0.8 µM): 1.02
relative viability (SK-MES-1; first compound 8 µM): 1.05
relative viability (NCI-H1792; first compound 0.08 µM): 0.527
relative viability (NCI-H1792; first compound 0.253 µM): 0.486
relative viability (NCI-H1792; first compound 0.8 µM): 0.471
relative viability (NCI-H1792; first compound 2.53 µM): 0.377
relative viability (NCI-H1792; first compound 8 µM): 0.544
relative viability (HARA; first compound 0.08 µM): 0.861
relative viability (HARA; first compound 0.253 µM): 0.954
relative viability (HARA; first compound 0.8 µM): 0.915
relative viability (HARA; first compound 8 µM): 0.97
relative viability (SK-LU-1; first compound 0.08 µM): 1.28
relative viability (SK-LU-1; first compound 0.253 µM): 1.07
relative viability (SK-LU-1; first compound 0.8 µM): 1.05
relative viability (SK-LU-1; first compound 2.53 µM): 0.911
relative viability (SK-LU-1; first compound 8 µM): 0.636
relative viability (HCC-366; first compound 0.08 µM): 0.629
relative viability (HCC-366; first compound 0.253 µM): 0.645
relative viability (HCC-366; first compound 0.8 µM): 0.558
relative viability (HCC-366; first compound 8 µM): 0.258
relative viability (NCI-H2228; first compound 0.08 µM): 1.03
relative viability (NCI-H2228; first compound 0.253 µM): 1.04
relative viability (NCI-H2228; first compound 0.8 µM): 0.543
relative viability (NCI-H2228; first compound 2.53 µM): 0.594
relative viability (NCI-H2228; first compound 8 µM): 0.66
relative viability (NCI-H2087; first compound 0.08 µM): 1.24
relative viability (NCI-H2087; first compound 0.253 µM): 0.898
relative viability (NCI-H2087; first compound 0.8 µM): 0.975
relative viability (NCI-H2087; first compound 2.53 µM): 0.867
relative viability (NCI-H2087; first compound 8 µM): 1
relative viability (HCC-827; first compound 0.08 µM): 0.884
relative viability (HCC-827; first compound 0.253 µM): 0.92
relative viability (HCC-827; first compound 0.8 µM): 1
relative viability (HCC-827; first compound 2.53 µM): 0.972
relative viability (HCC-827; first compound 8 µM): 0.923
relative viability (LOU-NH91; first compound 0.08 µM): 1
relative viability (LOU-NH91; first compound 0.253 µM): 0.82
relative viability (LOU-NH91; first compound 0.8 µM): 0.875
relative viability (LOU-NH91; first compound 2.53 µM): 0.859
relative viability (LOU-NH91; first compound 8 µM): 1.02
relative viability (BEN; first compound 0.08 µM): 0.847
relative viability (BEN; first compound 0.253 µM): 0.982
relative viability (BEN; first compound 0.8 µM): 0.937
relative viability (BEN; first compound 2.53 µM): 0.873
relative viability (BEN; first compound 8 µM): 0.854
relative viability (NCI-H1437; first compound 0.08 µM): 1.03
relative viability (NCI-H1437; first compound 0.253 µM): 1
relative viability (NCI-H1437; first compound 0.8 µM): 1.04
relative viability (NCI-H1437; first compound 2.53 µM): 1.01
relative viability (NCI-H1437; first compound 8 µM): 1.04
relative viability (NCI-H661; first compound 0.08 µM): 0.504
relative viability (NCI-H661; first compound 0.253 µM): 0.571
relative viability (NCI-H661; first compound 0.8 µM): 0.461
relative viability (NCI-H661; first compound 2.53 µM): 0.491
relative viability (NCI-H661; first compound 8 µM): 0.457
relative viability (NCI-H1734; first compound 0.08 µM): 0.876
relative viability (NCI-H1734; first compound 0.253 µM): 0.813
relative viability (NCI-H1734; first compound 0.8 µM): 0.804
relative viability (NCI-H1734; first compound 2.53 µM): 0.622
relative viability (NCI-H1734; first compound 8 µM): 0.732
